According to patent US7524846B2, “Arylalkyl- and cycloalkylalkyl-piperazine derivatives and methods of their use” (Wyeth, priority 2003, dated 2009):
Structures can show the parent of a compound that is named as a salt.

Target: T1, hNET (Homo sapiens, UniProt P23975)
T1 construct: expressed in transfected cells; host or cells: MDCK-Net6 (MDCK cells stably transfected with hNET)
Experiment: Norepinephrine (NE) uptake assay in MDCK-Net6 cells
Assay type: cell-based
Details: [3H]NE uptake, MDCK-Net6 cells stably transfected with human hNET; for inhibition at 1 µM: 1 μM test compound; for EC50: test range 1 to 10,000 nM
Protocol: MDCK-Net6 cells, stably transfected with human hNET (Pacholczyk, T., R. D. Blakely, and S. G. Amara, Nature, 1991, 350(6316): p. 350-4) were cultured in growth medium containing high glucose DMEM (Gibco, Cat. No. 11995), 10% FBS (dialyzed, heat-inactivated, US Bio-Technologies, Lot FBD1129HI) and 500 μg/ml G418 (Gibco, Cat. No. 10131). Cells were plated at 300,000/T75 flask and cells were split twice weekly. The JAR cell line (human placental choriocarcinoma) was purchased from ATCC (Cat. No. HTB-144). The cells were cultured in growth medium containing RPMI 1640 (Gibco, Cat. No. 72400), 10% FBS (Irvine, Cat. No. 3000), 1% sodium pyruvate (Gibco, Cat. No. 1136) and 0.25% glucose. Cells were plated at 250,000 cells/T75 flask and split twice weekly. For all assays, cells were plated in Wallac 96-well sterile plates (PerkinElmer, Cat. No. 3983498).
On day 1, cells were plated at 3,000 cells/well in growth medium and maintained in a cell incubator (37° C., 5% CO2). On day 2, growth medium was replaced with 200 μl of assay buffer (25 mM HEPES; 120 mM NaCl; 5 mM KCl; 2.5 mM CaCl2; 1.2 mM MgSO4; 2 mg/ml glucose (pH 7.4, 37° C.)) containing 0.2 mg/ml ascorbic acid and 10 μM pargyline. Plates containing cells with 200 μl of assay buffer were equilibrated for 10 minutes at 37° C. prior to addition of compounds. A stock solution of desipramine was prepared in DMSO (10 mM) and delivered to triplicate wells containing cells for a final test concentration of 1 μM. Data from these wells were used to define non-specific NE uptake (minimum NE uptake). Test compounds were prepared in DMSO (10 mM) and diluted in assay buffer according to test range (1 to 10,000 nM). Twenty-five microliters of assay buffer (maximum NE uptake) or test compound were added directly to triplicate wells containing cells in 200 μl of assay buffer. The cells in assay buffer with test compounds were incubated for 20 minutes at 37° C. To initiate the NE uptake, [^3H]NE diluted in assay buffer (120 nM final assay concentration) was delivered in 25 μl aliquots to each well and the plates were incubated for 5 minutes (37° C.). The reaction was terminated by decanting the supernatant from the plate. The plates containing cells were washed twice with 200 μl assay buffer (37° C.) to remove free radioligand. The plates were then inverted, left to dry for 2 minutes, then reinverted and air-dried for an additional 10 minutes. The cells were lysed in 25 μl of 0.25 N NaOH solution (4° C.), placed on a shake table and vigorously shaken for 5 minutes. After cell lysis, 75 μl of scintillation cocktail was added to each well and the plates were sealed with film tape. The plates were returned to the shake table and vigorously shaken for a minimum of 10 minutes to ensure adequate partitioning of organic and aqueous solutions. The plates were counted in a Wallac Microbeta counter (PerkinElmer) to collect the raw cpm data.
For each experiment, a data stream of cpm values collected from the Wallac Microbeta counter was downloaded to a Microsoft Excel statistical application program. Calculations of EC50 values were made using the transformed-both-sides logistic dose response program written by Wyeth Biometrics Department. The statistical program uses mean cpm values from wells representing maximum binding or uptake (assay buffer) and mean cpm values from wells representing minimum binding or uptake ((1 μM desipramine (hNET) or 1 μM paroxetine (hSERT)). Estimation of the EC50 value was completed on a log scale and the line was fit between the maximum and minimum binding or uptake values. All graphic data representation was generated by normalizing each data point to a mean percent based on the maximum and minimum binding or uptake values. The EC50 values reported from multiple experiments were calculated by pooling the raw data from each experiment and analyzing the pooled data as one experiment.

T1 sequence (P23975 whole entry): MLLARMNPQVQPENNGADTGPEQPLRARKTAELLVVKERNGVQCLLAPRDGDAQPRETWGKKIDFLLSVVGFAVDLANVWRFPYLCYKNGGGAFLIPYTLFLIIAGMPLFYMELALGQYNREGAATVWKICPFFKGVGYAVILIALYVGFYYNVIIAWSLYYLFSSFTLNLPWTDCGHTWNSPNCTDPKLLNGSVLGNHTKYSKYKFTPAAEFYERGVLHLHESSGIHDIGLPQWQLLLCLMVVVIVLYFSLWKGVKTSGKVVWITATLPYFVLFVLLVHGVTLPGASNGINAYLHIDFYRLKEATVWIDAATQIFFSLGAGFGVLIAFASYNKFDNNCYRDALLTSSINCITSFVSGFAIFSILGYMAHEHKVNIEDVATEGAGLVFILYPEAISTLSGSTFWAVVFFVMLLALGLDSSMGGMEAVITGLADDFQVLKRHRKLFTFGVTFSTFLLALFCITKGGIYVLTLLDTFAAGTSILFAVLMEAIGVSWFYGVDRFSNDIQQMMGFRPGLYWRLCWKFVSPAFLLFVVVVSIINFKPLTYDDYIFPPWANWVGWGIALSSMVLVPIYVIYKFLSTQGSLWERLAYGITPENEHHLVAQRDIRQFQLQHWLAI

SMILES | inhibition at 1 µM | EC50
COc1ccc2cc(CN3CCN(CC(c4cccc(Cl)c4)C4(O)CCCCC4)CC3)ccc2c1 (stereo not drawn) [Example 117, 1-(1-(3-chlorophenyl)-2-{4-[(6-methoxy-2-naphthyl)methyl]piperazin-1-yl}ethyl)cyclohexanol dihydrochloride] | 87% | 61 nM
OC1(C(CN2CCN(CC3CC3)CC2)c2cccc(Cl)c2)CCCCC1 (stereo not drawn) [Example 118, 1-{1-(3-chlorophenyl)-2-[4-(cyclopropylmethyl)piperazin-1-yl]ethyl}cyclohexanol dihydrochloride] | 97% | 57 nM
OC1(C(CN2CCN(CC3CC=CCC3)CC2)c2cccc(Cl)c2)CCCCC1 (stereo not drawn) [Example 119, 1-{1-(3-chlorophenyl)-2-[4-(cyclohex-3-en-1-ylmethyl)piperazin-1-yl]ethyl}cyclohexanol dihydrochloride] | 97% | 110 nM
OC1CCCC(CN2CCN(CC(c3cccc(Cl)c3)C3(O)CCCCC3)CC2)O1 (stereo not drawn) [Example 120, 6-({4-[2-(3-chlorophenyl)-2-(1-hydroxycyclohexyl)ethyl]piperazin-1-yl}methyl)tetrahydro-2H-pyran-2-ol dihydrochloride] | 97% | 130 nM
CC(CCN1CCN(CC(c2cccc(Cl)c2)C2(O)CCCCC2)CC1)c1ccccc1 (stereo not drawn) [Example 121, 1-{1-(3-chlorophenyl)-2-[4-(3-phenylbutyl)piperazin-1-yl]ethyl}cyclohexanol dihydrochloride] | 97% | 22 nM
OC1(C(CN2CCN(CCc3ccccc3)CC2)c2cccc(Cl)c2)CCCCC1 (stereo not drawn) [Example 122, 1-{1-(3-chlorophenyl)-2-[4-(2-phenylethyl)piperazin-1-yl]ethyl}cyclohexanol dihydrochloride] | 96% | 75 nM
OC1(C(CN2CCN(Cc3cccc(Oc4ccccc4)c3)CC2)c2cccc(Cl)c2)CCCCC1 (stereo not drawn) [Example 123, 1-{1-(3-chlorophenyl)-2-[4-(3-phenoxybenzyl)piperazin-1-yl]ethyl}cyclohexanol dihydrochloride] | 96% | 290 nM
OC1(C(CN2CCN(Cc3ccc4ccccc4c3)CC2)c2cccc(Cl)c2)CCCCC1 (stereo not drawn) [Example 124, 1-{1-(3-chlorophenyl)-2-[4-(2-naphthylmethyl)piperazin-1-yl]ethyl}cyclohexanol dihydrochloride] | 94% | 190 nM
OC1(C(CN2CCN(Cc3ccoc3)CC2)c2cccc(Cl)c2)CCCCC1 (stereo not drawn) [Example 125, 1-{1-(3-chlorophenyl)-2-[4-(3-furylmethyl)piperazin-1-yl]ethyl}cyclohexanol dihydrochloride] | 93% | 120 nM
OC1(C(CN2CCN(CC3CCCCC3)CC2)c2cccc(Cl)c2)CCCCC1 (stereo not drawn) [Example 126, 1-{1-(3-chlorophenyl)-2-[4-(cyclohexylmethyl)piperazin-1-yl]ethyl}cyclohexanol dihydrochloride] | 93% | 130 nM
OC1(C(CN2CCN(Cc3ccnc4ccccc34)CC2)c2cccc(Cl)c2)CCCCC1 (stereo not drawn) [Example 127, 1-{1-(3-chlorophenyl)-2-[4-(quinolin-4-ylmethyl)piperazin-1-yl]ethyl}cyclohexanol dihydrochloride] | 86% | 92 nM
CCc1ccc(CN2CCN(CC(c3cccc(Cl)c3)C3(O)CCCCC3)CC2)o1 (stereo not drawn) [Example 128, 1-(1-(3-chlorophenyl)-2-{4-[(5-ethyl-2-furyl)methyl]piperazin-1-yl}ethyl)cyclohexanol dihydrochloride] | 83% | 490 nM
CC(CN1CCN(CC(c2cccc(Cl)c2)C2(O)CCCCC2)CC1)c1ccccc1 (stereo not drawn) [Example 129, 1-{1-(3-chlorophenyl)-2-[4-(2-phenylpropyl)piperazin-1-yl]ethyl}cyclohexanol dihydrochloride] | 81% | 430 nM
OC1(C(CN2CCN(Cc3cc4ccccc4o3)CC2)c2cccc(Cl)c2)CCCCC1 (stereo not drawn) [Example 130, 1-[2-[4-(1-benzofuran-2-ylmethyl)piperazin-1-yl]-1-(3-chlorophenyl)ethyl]cyclohexanol dihydrochloride] | 79% | 890 nM
OC1(C(CN2CCN(Cc3ccc(OCc4ccccc4)cc3)CC2)c2cccc(Cl)c2)CCCCC1 (stereo not drawn) [Example 131, 1-[2-{4-[4-(benzyloxy)benzyl]piperazin-1-yl}-1-(3-chlorophenyl)ethyl]cyclohexanol dihydrochloride] | 78% | 170 nM
OC1(C(CN2CCN(Cc3ccc(Oc4ccccc4)cc3)CC2)c2cccc(Cl)c2)CCCCC1 (stereo not drawn) [Example 132, 1-{1-(3-chlorophenyl)-2-[4-(4-phenoxybenzyl)piperazin-1-yl]ethyl}cyclohexanol dihydrochloride] | 77% | 70 nM
OC1(C(CN2CCN(Cc3ccncc3)CC2)c2cccc(Cl)c2)CCCCC1 (stereo not drawn) [Example 133, 1-{1-(3-chlorophenyl)-2-[4-(pyridin-4-ylmethyl)piperazin-1-yl]ethyl}cyclohexanol dihydrochloride] | 77% | 460 nM
OC1(C(CN2CCN(Cc3cccnc3)CC2)c2cccc(Cl)c2)CCCCC1 (stereo not drawn) [Example 134, 1-{1-(3-chlorophenyl)-2-[4-(pyridin-3-ylmethyl)piperazin-1-yl]ethyl}cyclohexanol dihydrochloride] | 69% | 930 nM
